Key:
EZH2 [1] = assay: Western blot of EZH2 protein expression in MDA-MB-468 cells; assay type: cell-based, human
Procedure: Cells were harvested and performed with western blotting analysis. […] The levels of protein expression were quantitated and shown under blots. (C) Cells were transfected with EZH2 shRNA for 0, 1, 2, 3, and 4 days and collected for determination of cell viability (left) and protein expression (right). (D)(E) After 4 days of EZH2 knockdown, cells were incubated with 3 μM YC-1 for 4 h and detected cell viability (D) and protein contents (E). (F) Tumor specimens were isolated and protein was extracted for western blot analysis.
(§1) Cells were lysed in PBS containing proteinase inhibitor and phosphatase inhibitors and sonication. Protein concentration was measured using the Bio-Rad protein assay kit (Bio-Rad Laboratories, Hercules, Calif., USA). Lysate protein was separated by electrophoresis of SDS-PAGE and transferred to Immobilon P membrane (EMD Millipore). The membranes were incubated with appropriate primary antibodies and horseradish peroxidase-conjugated secondary antibodies (EMD Millipore). The signaling was visualized using Chemiluminescence substrate kit (EMD Millipore) and collected by the Luminesence image analyzer, LAS4000 (Fuji Photo Film Co., Tokyo, Japan). The band intensities were analyzed and quantified by the Multi Gauge software (Fuji Photo Film).

EED = assay: Western blot of PRC2 protein expression in MDA-MB-468 cells; assay type: cell-based, human; settings: 24 h
Procedure: (§2) (A)(B) Cells were treated with indicated concentration of YC-1 for 24 h (A) or 3 μM of YC-1 for indicated time (B). Cells were harvested and performed with western blotting analysis. […] The levels of protein expression were quantitated and shown under blots. (C) Cells were transfected with EZH2 shRNA for 0, 1, 2, 3, and 4 days and collected for determination of cell viability (left) and protein expression (right). (D)(E) After 4 days of EZH2 knockdown, cells were incubated with 3 μM YC-1 for 4 h and detected cell viability (D) and protein contents (E). (F) Tumor specimens were isolated and protein was extracted for western blot analysis.
as §1

RbAp48 = assay: as above; assay type: cell-based, human; settings: 24 h
Procedure: as §2, §1

SUZ12 = assay: as above; assay type: cell-based, human; settings: 24 h
Procedure: as §2, §1

Bmi1 = assay: Western blot of PRC1 components in MDA-MB-468 cells; assay type: cell-based, human
Procedure: as §2, §1

Ring1A = assay: as above; assay type: cell-based, human
Procedure: as §2, §1

Ring1B = assay: as above; assay type: cell-based, human
Procedure: as §2, §1

EZH2 [2] = assay: Western blot of EZH2 in tumor from MDA-MB-468 xenograft mice; assay type: in vivo, Nu/Nu mice
Procedure: as §2
(§3) Cells were lysed in PBS containing proteinase inhibitor and phosphatase inhibitors and sonication. Protein concentration was measured using the Bio-Rad protein assay kit (Bio-Rad Laboratories, Hercules, Calif., USA). Lysate protein was separated by electrophoresis of SDS-PAGE and transferred to Immobilon P membrane (EMD Millipore). […] The band intensities were analyzed and quantified by the Multi Gauge software (Fuji Photo Film).
Nu/Nu female mice (four weeks old) were from National Laboratory Animal Center, Taipei, Taiwan. […] Tumor size and body weights of mice were measured once per 3 days and tumor volume (mm^3) was calculated as the equation: length×(width)×0.5. […]

EZH2 [3] = assay: EZH2 ubiquitination assay; assay type: cell-based, human; settings: 3 μM YC-1
Procedure: (A) Cells were pretreated with cyclohexamide (30 μM) for 1 h and followed by induction with vehicle (DMSO) or YC-1 (3 μM) for indicated time. Cells were harvested for detection of protein expression. (B)(C) Cells were incubated with 3 μM YC-1 for 6 h in the presence of vehicle, 3 μM MG-132 or 30 μM NH4Cl. Cells were harvested for detection of protein expression (B) or cell viability assay (C). The levels of protein expression were quantitated and shown under blots. (D) After treatment of 3 μM YC-1 for indicated time, cells were harvested and lysed for immunoprecipitation and western blot analysis described in Materials and Methods.
Cells were lysed with MLB buffer (25 mM HEPES, pH 7.5, 150 mM NaCl, 1% Igepal CA-630, 10 mM MgCl2, 1 mM EDTA, 2% glycerol, 1 mM Na3VO4, 1 mM NaF, 1 mM PMSF, 10 μg/ml of leupeptin, aprotinin, and pepstatin A). After sonication, cell lysates were centrifugated at 12,000×g for 10 min at 4° C. Supernatants were incubated with anti-EZH2 antibody (BD Biosciences) and protein A Sepharose beads (GE Health Care) overnight at 4° C. After washing with MLB buffer, precipitated proteins were boiled in 1× Laemmli sample buffer and then separated with SDS-PAGE. The ubiquitination levels of EZH2 were recognized by using anti-Ubiquitn monoclonal antibody.

CDK1 = assay: Western blot of CDK1 activation; assay type: cell-based, human; settings: 3 μM YC-1
Procedure: (§4) (A) MDA-MB-468 cells were incubated with 3 μM YC-1 for indicated time. Cells were harvested for the detection of phospho-Akt (Ser473), Akt, and PCNA. (B) Cells were pretreated with LY294002 (LY, 10 μM) for 1 h followed by 3 μM YC-1 induction for 6 h. (C) MDA-MB-468 cells were incubated with 3 μM YC-1 for indicated time. Cells were harvested for the detection of phospho-CDK1 (Thr161), CDK1, phospho-EZH2 ([…]), EZH2, and β-actin expression with western blot analysis. Levels of EZH2 phosphorylation were calculated by phospho-EZH2 normalized by total EZH2. (D) Cells were treated with YC-1 for 6 h in the absence or presence of roscovitine (Rosc, 20 μM). Cells were harvested and analyzed by western blotting for protein expression. (E) CDK1 knockdown of MDA-MB-468 cells were induced with 3 μM YC-1 for 4 h and followed by western blot analysis.
as §3

EZH2 Tyr487 = assay: Western blot of EZH2 phosphorylation; assay type: cell-based, human; settings: 3 μM YC-1
Procedure: as §4, §3

For `OCc1ccc(-c2nn(Cc3ccccc3)c3ccccc23)o1` [YC-1, 3-(5′-hydroxymethyl-2′-furyl)-1-benzyl indazole], the “inhibition of EZH2 protein” value (EZH2 [1]; 3 μM YC-1, 2 h) was “about 18%”, the IC50 (EZH2 [1]; 24 h-incubation, MDA-MB-468, read-out: IC50, inhibition of EZH2 expression) was 540 ± 40 nM and the EED protein expression (EED) was “no effect”. For the same molecule, the RbAp48 protein expression (RbAp48) was “effectively concentration-dependent suppression”, the SUZ12 protein expression (SUZ12) was “effectively concentration-dependent suppression” and the Bmi1 protein (Bmi1) was “decreased”. The Ring1A protein (Ring1A) was “decreased”, the Ring1B protein (Ring1B) was “decreased” and the “EZH2 level in tumor” value (EZH2 [2]) was “decrease EZH2 level in tumor”. The “ubiquitination of EZH2” value (EZH2 [3]) was “time-dependently promoted the ubiquitination of EZH2”, the CDK1 activation (CDK1) was “could induce the activation” and the “phosphorylation of EZH2 Tyr487” value (EZH2 Tyr487) was “no effect”.
